# Laboratory results published in ChEMBL document CHEMBL5252565, “Advances in research on 3C-like protease (3CLpro) inhibitors against SARS-CoV-2 since 2020” (RSC Med Chem, 2023).
# pEC50, pIC50: −log10 of the molar value.
# What was measured:
# SARS-CoV-2 [1] = assay: Antiviral activity against SARS-CoV-2 infected in African green monkey Vero E6 cells assessed as reduction in infection measured after 24 hrs by Plaque assay; format: functional, organism-based; conditions: Severe acute respiratory syndrome coronavirus 2, Vero C1008, 24 h
# [2] = Oral bioavailability in Beagle dog by LC-MS/MS analysis; format: ADME, organism-based, Canis lupus familiaris; conditions: in vivo
# [3] = Oral bioavailability in Sprague-Dawley rat by LC-MS/MS analysis; format: ADME, organism-based; conditions: in vivo
# [4] = molecular target: T1, Replicase polyprotein 1ab (Severe acute respiratory syndrome coronavirus 2, UniProt P0DTD1); assay: Inhibition of SARS-CoV-2 HKU-001a 3CL protease
# [5] = Oral bioavailability in mouse by LC-MS/MS analysis; format: ADME, organism-based; conditions: in vivo
# [6] = Inhibition of human cathepsin using Z-Phe-Arg-AMC as substrate incubated for 30 mins by FRET assay
# Calpain1/2 = molecular target: T2, Calpain1/2 (Homo sapiens, UniProt P17655+P07384); assay: Inhibition of human calpain using Z-Phe-Arg-AMC as substrate incubated for 30 mins by FRET assay; format: protein assay
# T2 sequence (P17655 whole entry): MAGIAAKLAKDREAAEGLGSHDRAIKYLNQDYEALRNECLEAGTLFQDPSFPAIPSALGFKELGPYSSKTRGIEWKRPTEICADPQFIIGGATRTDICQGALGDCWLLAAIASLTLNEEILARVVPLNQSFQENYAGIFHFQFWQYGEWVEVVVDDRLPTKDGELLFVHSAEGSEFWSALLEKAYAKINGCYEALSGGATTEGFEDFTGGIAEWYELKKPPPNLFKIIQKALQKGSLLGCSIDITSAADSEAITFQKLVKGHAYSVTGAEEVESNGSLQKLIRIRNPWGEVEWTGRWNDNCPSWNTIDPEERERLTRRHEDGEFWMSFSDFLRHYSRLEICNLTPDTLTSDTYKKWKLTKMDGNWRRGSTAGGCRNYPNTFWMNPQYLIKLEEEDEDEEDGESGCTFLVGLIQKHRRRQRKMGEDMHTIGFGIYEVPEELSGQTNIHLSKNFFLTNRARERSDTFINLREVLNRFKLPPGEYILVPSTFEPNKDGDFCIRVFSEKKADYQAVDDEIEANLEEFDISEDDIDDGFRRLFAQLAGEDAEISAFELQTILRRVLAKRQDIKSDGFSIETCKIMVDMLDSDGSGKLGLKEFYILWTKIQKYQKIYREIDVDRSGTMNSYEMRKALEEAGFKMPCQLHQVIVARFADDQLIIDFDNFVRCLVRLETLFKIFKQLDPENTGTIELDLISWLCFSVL
# T2 sequence (P07384 whole entry): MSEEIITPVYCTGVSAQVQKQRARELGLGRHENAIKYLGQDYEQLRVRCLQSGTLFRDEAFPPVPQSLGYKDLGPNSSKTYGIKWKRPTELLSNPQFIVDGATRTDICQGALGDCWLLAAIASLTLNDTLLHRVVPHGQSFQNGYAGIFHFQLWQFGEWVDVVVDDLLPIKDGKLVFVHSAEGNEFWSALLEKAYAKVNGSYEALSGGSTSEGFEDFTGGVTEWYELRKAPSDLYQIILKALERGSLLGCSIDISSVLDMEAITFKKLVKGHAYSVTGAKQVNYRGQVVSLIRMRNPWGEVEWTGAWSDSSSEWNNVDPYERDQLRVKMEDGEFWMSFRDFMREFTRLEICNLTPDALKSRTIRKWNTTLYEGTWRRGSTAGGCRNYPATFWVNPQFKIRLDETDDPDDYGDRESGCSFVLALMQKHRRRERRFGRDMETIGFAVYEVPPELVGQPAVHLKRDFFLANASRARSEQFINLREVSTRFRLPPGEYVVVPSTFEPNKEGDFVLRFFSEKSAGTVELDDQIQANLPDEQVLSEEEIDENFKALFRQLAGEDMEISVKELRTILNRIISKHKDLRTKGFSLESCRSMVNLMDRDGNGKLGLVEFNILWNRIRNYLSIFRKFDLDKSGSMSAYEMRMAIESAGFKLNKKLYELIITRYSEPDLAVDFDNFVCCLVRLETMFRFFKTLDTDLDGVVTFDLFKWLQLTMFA
# SARS-CoV-2 [7] = assay: Antiviral activity against SARS-CoV-2 infected in African green monkey Vero E6 cells; format: functional, organism-based; conditions: Severe acute respiratory syndrome coronavirus 2, Vero C1008
# SARS-CoV-2 [8] = assay: Antiviral activity against SARS-CoV-2 infected in […] Caco-2 cells; format: functional, organism-based; conditions: Severe acute respiratory syndrome coronavirus 2, Caco-2
# Caspase-3 = molecular target: T3, Caspase-3 (Homo sapiens, UniProt P42574); assay: Inhibition of human caspase 3 using Z-Phe-Arg-AMC as substrate incubated for 30 mins by FRET assay
# T3 sequence (P42574 whole entry): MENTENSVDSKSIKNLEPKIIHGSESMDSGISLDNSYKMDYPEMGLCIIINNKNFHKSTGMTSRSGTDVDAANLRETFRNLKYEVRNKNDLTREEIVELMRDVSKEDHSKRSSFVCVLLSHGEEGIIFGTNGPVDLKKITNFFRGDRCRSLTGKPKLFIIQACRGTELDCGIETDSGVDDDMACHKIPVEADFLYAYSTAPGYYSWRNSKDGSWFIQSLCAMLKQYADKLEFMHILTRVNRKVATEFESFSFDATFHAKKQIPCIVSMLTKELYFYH
# Trypsin = Trypsin (Homo sapiens, UniProt P07477+P07478+P35030); assay: Inhibition of human Trypsin using Z-Phe-Arg-AMC as substrate incubated for 30 mins by FRET assay; format: protein assay
# [9] = molecular target: T1, Replicase polyprotein 1ab; assay: Inhibition of SARS-CoV-2 3CL protease
# Homo sapiens [10] = species on record: Homo sapiens; assay: Antiviral activity against SARS-CoV-2 infected in human A549-ACE2 cells by immunofluorescence microscopic technique; format: functional, cell-based
# [11] = molecular target: T1, Replicase polyprotein 1ab; assay: Inhibition of SARS-CoV-2 3CL protease expressed in escherichia coli measured after 24 hrs by SDS-PAGE
# Homo sapiens [12] = species on record: Homo sapiens; assay: Antiviral activity against SARS-CoV-2 infected in human A549-ACE2 cells; format: functional, cell-based
structure (smiles),measurement,setting,value
O=C[C@H](C[C@@H]1CCNC1=O)NC(=O)[C@H](Cc1cccc(F)c1)NC(=O)c1cc2ccccc2[nH]1,pIC50,SARS-CoV-2 [1],6.14
[2H][C@](C(=O)N[C@@H](C)c1ccc(F)cc1)(c1cccnc1)N(C(=O)C(C)=O)c1ccc2c(c1)oc1ccccc12,bioavailability,[2],85.7%
same,bioavailability,[3],31.9%
same,pIC50,[4],8.09
same,bioavailability,[5],92.9%
C[C@H](NC(=O)[C@@H](c1cccnc1)N(C(=O)C(Cl)Cl)c1ccc(-c2ccccc2)cc1)c1ccccc1,pIC50,[6],< 4.70
same,IC50,Calpain1/2,> 20000 nM
same,pEC50,SARS-CoV-2 [7],6.05
same,pEC50,SARS-CoV-2 [8],5.69
same,pIC50,Caspase-3,< 4.70
same,IC50,Trypsin,> 20000 nM
O=C[C@H](C[C@@H]1CCNC1=O)NC(=O)[C@@H]1[C@H]2CCC[C@H]2CN1C(=O)CCc1cc(F)cc(F)c1,pIC50,[9],5.12
CNC(=O)c1cc(Br)cc([N+](=O)[O-])c1N[C@@H]1CCCC[C@@H]1NC(=O)c1cccc2ccccc12,pEC50,Homo sapiens [10],7.92
same,pIC50,[11],7.14
Cc1ccc(NC(=O)c2ccc(CN3CCN(C)CC3)cc2)cc1Nc1nc(-c2cccnc2)cs1 [MASITINIB],pEC50,Homo sapiens [12],5.49
